Molecules are shown by their SMILES.

For the assay, the target named is T1, MR1 on human cell lines (Homo sapiens, UniProt Q95460).
T1 construct: endogenous in cells
The experiment in a line: MR1 surface expression on human cell lines after ligand incubation. Particulars: range of human cell lines, after incubation (not shown). It counts as cell-based. The source says: MR1 mRNA transcripts are present in different tissues and cell lines from mice and humans. […] In contrast, whether mouse tumor cell lines express MR1 has not previously been examined. […] Basally, the level of MR1 was almost undetectable on the surface of all tumor cell lines examined (FIG. 2D). […] The kinetics of MR1 upregulation on B16F10 cells was similar to what was previously reported for human C1R cells (B-cell lymphoblastoid cell line) (McWilliam et al., 2016). […] Next, the impact of up-regulation of MR1 on B16F10 or LWT1 prior to i.v injection to WT or MR1−/− mice on the number of lung metastases was assessed.

T1 sequence (Q95460 23-341): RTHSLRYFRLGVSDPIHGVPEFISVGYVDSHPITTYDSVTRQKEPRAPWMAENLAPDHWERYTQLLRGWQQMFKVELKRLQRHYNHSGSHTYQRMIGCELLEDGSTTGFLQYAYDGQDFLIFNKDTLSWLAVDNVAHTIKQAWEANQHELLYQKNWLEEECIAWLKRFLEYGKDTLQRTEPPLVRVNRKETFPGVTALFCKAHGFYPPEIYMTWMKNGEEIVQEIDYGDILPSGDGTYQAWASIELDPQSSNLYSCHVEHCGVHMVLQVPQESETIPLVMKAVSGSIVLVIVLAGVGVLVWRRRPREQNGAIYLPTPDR

As for `CC(=O)C=Nc1c(NC[C@H](O)[C@H](O)[C@H](O)CO)[nH]c(=O)[nH]c1=O` [5-OP-RU], the MR1 expression entry is recorded as “became upregulated”.

The record behind these values is US20220213198A1, “METHOD OF TREATMENT” (The Council of the Queensland Institute of Medical Research, priority 2019, published 2022).
